Test system: Bacillus subtilis ATCC 6633
Experiment: Determination of antibiotic activity, agar well diffusion, zones of growth inhibition
Type: cell-based
Conditions: nutrient 1.5% agar seeded with B. subtilis; 20 microlitres of test compound as a solution in ethanol (5-10 mg/L) per well; incubated overnight
Experimental: A 3 ml overnight culture of Bacillus subtilis ATCC 6633 was grown at 30% C in nutrient broth (Difco). 200 ml of nutrient 1.5% agar (difco) at 46% C was seeded with 1 ml of the B.subtilis culture and poured immediately into petri dishes (25 ml/plate). After drying the plates in a laminar flow hood for 15 minutes, wells ([…] in diameter) were cut using a cork borer and 20 microlitres of the test compound as a solution in ethanol (5-10 mg/L) was added to each well. The plates were kept at 4% C for 5-7 hours to allow the compound to diffuse, and the plates were then incubated overnight at 30% C.

COC1(C)CC(OC2C(C)C(=O)OC(C(C)C)C(C)(O)C(O)C(C)C(=O)C(C)CC(C)(O)C(OC3OC(C)CC(N(C)C)C3O)C2C)OC(C)C1O (centres unmarked) [(i-but)-erythromycin A]
zones of growth inhibition: Clear zones of growth inhibition

CCC(C)C1OC(=O)C(C)C(OC2CC(C)(OC)C(O)C(C)O2)C(C)C(OC2OC(C)CC(N(C)C)C2O)C(C)(O)CC(C)C(=O)C(C)C(O)C1(C)O (centres unmarked) [(s-pent)-erythromycin A]
zones of growth inhibition: Clear zones of growth inhibition

From US7807418B2, “Method for producing hybrid polyketide synthases” (Biotica Technology Limited, priority 1996, dated 2010)
